Like-named read-outs stand apart in the source and are kept apart here.
What was measured:
[1] = target: recombinant human Bcl-2-G101V protein (Homo sapiens (Human), UniProt P10415, G101V); test: Bcl-2-G101V TR-FRET Assay; assay type: binding; conditions: Bcl-2 G101V mutant, TR-FRET; read-out: Biochemical assay (IC50, nM) Bcl-2 G101V
Summary of the method: (§1)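 Compounds were titrated at increasing concentrations against the Bcl-2-G101V–ligand interaction. TR-FRET signals were then read (ex 337 nm; em 490/520 nm). Percent inhibition was derived from the 490-to-520 nm ratio, and IC50 from a four-parameter logistic equation.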

[2] = system: recombinant human Bcl-2-G101V protein; test: Bcl-2-G101V TR-FRET Assay; assay type: binding; conditions: ratio of biochemical IC50 Bcl-2 G101V / Bcl-2 WT
Summary of the method: as §1

[3] = system: RS4;11 (BCL-2 dependent acute lymphoblastic leukemia cell line); test: RS4;11 Cell Proliferation Assay; assay type: cell-based; conditions: Homo sapiens, RS4-11, RS4;11 cells, read-out: Cellular proliferation assay (IC50, nM) RS4
Summary of the method: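 RS4;11 cells, 50,000 per well in RPMI-1640 with 10% FBS, treated 48 h at 37 °C with a 10-point dilution series topping at 1 μM. Viability read by CellTiter-Glo ATP luminescence; mean IC50 reported.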

[4] = target: Recombinant human Bcl-2 protein (Homo sapiens (Human), UniProt P10415); test: Bcl-2 TR-FRET Assay; assay type: binding
Summary of the method: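 0.05 nM Bcl-2 pre-incubated 0.5 h at room temperature with 10-point compound dilutions (top final 1, 0.1, 0.02 or 0.01 uM) in 20 mM potassium phosphate pH 7.5, 50 mM NaCl, 1 mM EDTA, 0.05% Tween-20, 0.01% BSA; FITC-Bak peptide (0.5 nM) and anti-6His Tb cryptate added, 1 h. IC50 from four-parameter logistic fit.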

[5] = target: recombinant human Bcl-2 D103Y protein (Homo sapiens (Human), UniProt P10415, D103Y); test: Bcl-2-D103Y Biochemical Assay (TR-FRET); assay type: binding; conditions: for IC50: TR-FRET, FITC labeled Bak peptide; for Ratio of Bcl-2 D103Y/Bcl-2 WT: ratio of IC50
Summary of the method: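 Recombinant human Bcl-2 D103Y binding to its ligand measured by TR-FRET (ex 337 nm, em 490/520 nm) with increasing compound concentrations. Percent inhibition from the 490/520 nm ratio; IC50 from four-parameter logistic fit.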

[6] = system: BCL-2 G101V knock-in cell line H96 (derive from RS4;11); test: Bcl 2-G101V Knock-In RS4;11 Cell Proliferation Assay; assay type: cell-based; conditions: Homo sapiens, RS4;11 Bcl-2 G101V knock-in clone H96, 48 hrs, CellTiter-GLO, read-out: Cellular proliferation assay (IC50, nM) RS4
Summary of the method: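 H96, a CRISPR-generated RS4;11 clone carrying BCL2-G101V knock-in (WES/RNA-seq validated), seeded 50,000 per well and exposed 48 h at 37 °C to 10-point dilutions topping at 1 or 10 μM. Viability by CellTiter-Glo luminescence; mean IC50.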

[7] = Bcl-2 wild type, TR-FRET, read-out: Biochemical assay (IC50, nM) Bcl-2 WT
[8] = wild type Bcl-2, unit inferred, read-out: Bcl-2 WT

Structure (SMILES): COc1ccc(CN2CCN(C3CC4(CCN(c5ccc(C(=O)NS(=O)(=O)c6ccc(NC[C@H]7CC[C@](C)(O)CC7)c([N+](=O)[O-])c6)c(Oc6cnc7[nH]ccc7c6)c5)CC4)C3)C(c3ccccc3C(C)C)C2)c2c1OCCO2 (stereo partly shown) [Example 203, 2-((1H-pyrrolo[2,3-b]pyridin-5-yl)oxy)-N-((4-((((1r,4r)-4-hydroxy-4-methylcyclohexyl)methyl)amino)-3-nitrophenyl)sulfonyl)-4-(2-(2-(2-isopropylphenyl)-4-((8-methoxy-2,3-dihydrobenzo[b][1,4]dioxin-5-yl)methyl)piperazin-1-yl)-7-azaspiro[3.5]nonan-7-yl) benzamide]
- IC50 [1]: 0.17 nM
- Ratio of Bcl-2 G101V/WT [2]: 3.2
- IC50 [3]: 0.38 nM
- IC50 [4, 7]: 0.052 nM
- IC50 [4, 8]: 0.052 nM
- IC50 [5]: 0.083 nM
- Ratio of Bcl-2 D103Y/Bcl-2 WT [5]: 1.6
- IC50 [6]: 0.9 nM

Structure (SMILES): COc1cc(CN2CCN(C3CC4(C3)CN(c3ccc(C(=O)NS(=O)(=O)c5ccc(NC[C@H]6CC[C@](C)(O)CC6)c([N+](=O)[O-])c5)c(Oc5cnc6[nH]cc(F)c6c5)c3)C4)[C@H](c3ccccc3C(C)C)C2)cc2c1OCCCC2 [Example 347, 2-((3-fluoro-1H-pyrrolo[2,3-b]pyridin-5-yl)oxy)-N-((4-((((1r,4r)-4-hydroxy-4-methylcyclohexyl)methyl)amino)-3-nitrophenyl)sulfonyl)-4-(6-((R)-2-(2-isopropylphenyl)-4-((9-methoxy-2,3,4,5-tetrahydrobenzo[b]oxepin-7-yl)methyl)piperazin-1-yl)-2-azaspiro[3.3]heptan-2-yl) benzamide]
- IC50 [1]: 0.47 nM
- Ratio of Bcl-2 G101V/WT [2]: 2.3
- IC50 [3]: 0.13 nM
- IC50 [4, 7]: 0.2 nM
- IC50 [4, 8]: 0.2 nM
- IC50 [5]: 0.28 nM
- Ratio of Bcl-2 D103Y/Bcl-2 WT [5]: 1.4
- IC50 [6]: 0.34 nM

Structure (SMILES): CCOc1cc(CN2CCN(C3CC4(CCN(c5ccc(C(=O)NS(=O)(=O)c6ccc(NC[C@H]7CC[C@](C)(O)CC7)c([N+](=O)[O-])c6)c(Oc6cnc7[nH]ccc7c6)c5)CC4)C3)C(c3ccccc3C(C)C)C2)ccc1OC (stereo partly shown) [Example 124, 2-((1H-pyrrolo[2,3-b]pyridin-5-yl)oxy)-4-(2-(4-(3-ethoxy-4-methoxybenzyl)-2-(2-isopropylphenyl)piperazin-1-yl)-7-azaspiro[3.5]nonan-7-yl)-N-((4-((((1r,4r)-4-hydroxy-4-methylcyclohexyl)methyl)amino)-3-nitrophenyl)sulfonyl)benzamide]
- IC50 [1]: 0.51 nM
- Ratio of Bcl-2 G101V/WT [2]: 3.4
- IC50 [3]: 0.24 nM
- IC50 [4, 7]: 0.15 nM
- IC50 [4, 8]: 0.15 nM
- IC50 [5]: 0.21 nM
- Ratio of Bcl-2 D103Y/Bcl-2 WT [5]: 1.4
- IC50 [6]: 1.2 nM

Structure (SMILES): [2H]C([2H])([2H])Oc1cc(CN2CCN(C3CC4(C3)CN(c3ccc(C(=O)NS(=O)(=O)c5ccc(NC[C@H]6CC[C@](C)(O)CC6)c([N+](=O)[O-])c5)c(Oc5cnc6[nH]cc(F)c6c5)c3)C4)[C@H](c3ccccc3C(C)C)C2)cc2ccoc12 [Example 322, 2-((3-fluoro-1H-pyrrolo[2,3-b]pyridin-5-yl)oxy)-N-((4-((((1r,4r)-4-hydroxy-4-methylcyclohexyl)methyl)amino)-3-nitrophenyl)sulfonyl)-4-(6-((R)-2-(2-isopropylphenyl)-4-((7-(methoxy-d3)benzofuran-5-yl)methyl)piperazin-1-yl)-2-azaspiro[3.3]heptan-2-yl)benzamide]
- IC50 [1]: 0.72 nM
- Ratio of Bcl-2 G101V/WT [2]: 2.9
- IC50 [3]: 0.18 nM
- IC50 [4, 7]: 0.25 nM
- IC50 [4, 8]: 0.25 nM
- IC50 [5]: 0.36 nM
- Ratio of Bcl-2 D103Y/Bcl-2 WT [5]: 1.4
- IC50 [6]: 0.32 nM

Structure (SMILES): [2H]C([2H])([2H])Oc1ccc(CN2CCN(C3CC4(C3)CN(c3ccc(C(=O)NS(=O)(=O)c5ccc(NC[C@H]6CC[C@](C)(O)CC6)c([N+](=O)[O-])c5)c(Oc5cnc6[nH]cc(F)c6c5)c3)C4)[C@H](c3ccccc3C(C)C)C2)cc1 [Example 218, 2-((3-fluoro-1H-pyrrolo[2,3-b]pyridin-5-yl)oxy)-N-((4-((((1r,4r)-4-hydroxy-4-methylcyclohexyl)methyl)amino)-3-nitrophenyl)sulfonyl)-4-(6-((R)-2-(2-isopropylphenyl)-4-(4-(methoxy-d3)benzyl)piperazin-1-yl)-2-azaspiro[3.3]heptan-2-yl) benzamide]
- IC50 [1]: 0.25 nM
- Ratio of Bcl-2 G101V/WT [2]: 2.5
- IC50 [3]: 0.12 nM
- IC50 [4, 7]: 0.1 nM
- IC50 [4, 8]: 0.1 nM
- IC50 [5]: 0.11 nM
- Ratio of Bcl-2 D103Y/Bcl-2 WT [5]: 1.0
- IC50 [6]: 0.29 nM

Structure (SMILES): CC(C)c1ccccc1[C@@H]1CN(Cc2ccc(F)cc2)CCN1C1CC2(CCN(c3ccc(C(=O)NS(=O)(=O)c4ccc(NC[C@H]5CC[C@](C)(O)CC5)c([N+](=O)[O-])c4)c(Oc4cnc5[nH]ccc5c4)c3)CC2)C1 (single isomer, unassigned) [Example 28a, 2-((1H-pyrrolo[2,3-b]pyridin-5-yl)oxy)-4-(2-((R or S)-4-(4-fluorobenzyl)-2-(2-isopropylphenyl)piperazin-1-yl)-7-azaspiro[3.5]nonan-7-yl)-N-((4-((((1r,4r)-4-hydroxy-4-methylcyclohexyl)methyl)amino)-3-nitrophenyl)sulfonyl)benzamide]
- IC50 [1]: 0.33 nM
- Ratio of Bcl-2 G101V/WT [2]: 3.3
- IC50 [3]: 0.21 nM
- IC50 [4, 7]: 0.098 nM
- IC50 [4, 8]: 0.098 nM
- IC50 [5]: 0.2 nM
- Ratio of Bcl-2 D103Y/Bcl-2 WT [5]: 2.1
- IC50 [6]: 1.23 nM

Structure (SMILES): COc1cc(CN2CCN(C3CC4(C3)CN(c3ccc(C(=O)NS(=O)(=O)c5ccc(NC[C@H]6CC[C@](C)(O)CC6)c([N+](=O)[O-])c5)c(Oc5cnc6[nH]cc(F)c6c5)c3)C4)[C@H](c3ccccc3C(C)C)C2)cc2c1OCC2(C)C [Example 295, 2-((3-fluoro-1H-pyrrolo[2,3-b]pyridin-5-yl)oxy)-N-((4-((((1r,4r)-4-hydroxy-4-methylcyclohexyl)methyl)amino)-3-nitrophenyl)sulfonyl)-4-(6-((R)-2-(2-isopropylphenyl)-4-((7-methoxy-3,3-dimethyl-2,3-dihydrobenzofuran-5-yl)methyl)piperazin-1-yl)-2-azaspiro[3.3]heptan-2-yl)benzamide]
- IC50 [1]: 0.56 nM
- Ratio of Bcl-2 G101V/WT [2]: 3.0
- IC50 [3]: 0.29 nM
- IC50 [4, 7]: 0.19 nM
- IC50 [4, 8]: 0.19 nM
- IC50 [5]: 0.25 nM
- Ratio of Bcl-2 D103Y/Bcl-2 WT [5]: 1.3
- IC50 [6]: 0.49 nM

Structure (SMILES): COc1ccc(CN2CCN(C3CC4(CCN(c5ccc(C(=O)NS(=O)(=O)c6ccc(NC[C@H]7CC[C@](C)(O)CC7)c([N+](=O)[O-])c6)c(Oc6cnc7[nH]cc(Cl)c7c6)c5)CC4)C3)[C@H](c3ccccc3C(C)C)C2)cc1OC [Example 174, 2-((3-chloro-1H-pyrrolo[2,3-b]pyridin-5-yl)oxy)-4-(2-((R)-4-(3,4-dimethoxybenzyl)-2-(2-isopropylphenyl)piperazin-1-yl)-7-azaspiro[3.5]nonan-7-yl)-N-((4-((((1r,4r)-4-hydroxy-4-methylcyclohexyl)methyl)amino)-3-nitrophenyl)sulfonyl)benzamide]
- IC50 [1]: 0.59 nM
- Ratio of Bcl-2 G101V/WT [2]: 6.1
- IC50 [3]: 0.18 nM
- IC50 [4, 7]: 0.096 nM
- IC50 [4, 8]: 0.096 nM
- IC50 [5]: 0.14 nM
- Ratio of Bcl-2 D103Y/Bcl-2 WT [5]: 1.4
- IC50 [6]: 0.49 nM

— US20240376097A1, “BCL-2 Inhibitor” (BeiGene Ltd., priority 2020, published 2024)
